Source: PMC11850817 (Scientific Reports, 2025)
Read-outs that look alike come from different tables or passages of the source.

Experiments:
EBC-1 = assay: MTT antiproliferative assay, EBC-1; type: cell-based, human; conditions: read-out: IC50 EBC-1
AsPC-1 = assay: MTT antiproliferative assay, AsPC-1; type: cell-based, human; conditions: read-out: IC50 AsPC-1
Mia-Paca-2 = assay: MTT antiproliferative assay, Mia-Paca-2; type: cell-based, human; conditions: read-out: IC50 Mia-Paca-2
HT-29 = assay: MTT antiproliferative assay, HT-29; type: cell-based, human; conditions: read-out: IC50 HT-29
MCF-7 = assay: MTT antiproliferative assay, MCF-7; type: cell-based, human; conditions: read-out: IC50 MCF-7
NIH3T3 = assay: MTT assay, NIH3T3 non-cancer cell line; type: cell-based; conditions: read-out: IC50 NIH3T3
AXL = target: T1, AXL (Homo sapiens, UniProt P30530); assay: Radiometric kinase assay; type: biochemical; conditions: read-out: Kinase inhibition (%) AXL
T1 sequence (P30530 26-894): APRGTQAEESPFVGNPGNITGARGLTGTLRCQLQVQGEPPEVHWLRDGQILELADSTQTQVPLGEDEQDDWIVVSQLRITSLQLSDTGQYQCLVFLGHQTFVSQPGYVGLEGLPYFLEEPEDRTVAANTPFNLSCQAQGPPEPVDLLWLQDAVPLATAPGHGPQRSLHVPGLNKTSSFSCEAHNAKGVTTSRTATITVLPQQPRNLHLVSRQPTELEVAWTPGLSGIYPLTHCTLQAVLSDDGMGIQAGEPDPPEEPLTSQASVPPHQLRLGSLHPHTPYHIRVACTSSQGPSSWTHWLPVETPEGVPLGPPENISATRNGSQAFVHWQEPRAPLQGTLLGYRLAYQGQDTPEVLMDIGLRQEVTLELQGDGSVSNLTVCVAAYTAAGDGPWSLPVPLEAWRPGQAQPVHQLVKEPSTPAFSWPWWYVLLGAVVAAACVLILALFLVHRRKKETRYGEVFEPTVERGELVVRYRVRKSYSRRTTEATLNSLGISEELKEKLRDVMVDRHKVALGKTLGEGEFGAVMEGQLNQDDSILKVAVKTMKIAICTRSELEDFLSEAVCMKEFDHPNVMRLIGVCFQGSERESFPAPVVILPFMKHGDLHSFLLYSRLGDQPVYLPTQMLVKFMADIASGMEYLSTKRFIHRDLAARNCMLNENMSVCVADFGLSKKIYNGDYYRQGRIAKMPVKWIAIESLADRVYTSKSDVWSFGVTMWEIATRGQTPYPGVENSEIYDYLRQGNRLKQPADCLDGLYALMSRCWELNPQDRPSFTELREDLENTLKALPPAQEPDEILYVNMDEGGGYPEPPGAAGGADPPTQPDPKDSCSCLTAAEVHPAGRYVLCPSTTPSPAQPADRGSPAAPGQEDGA

CDK2/cyclin A = CDK2/cyclin A (Homo sapiens, UniProt P24941); assay: Radiometric kinase assay; type: biochemical; conditions: for inhibition at 10 µM: read-out: Kinase inhibition (%) CDK2/cyclin A
FLT1 (VEGFR1) = FLT1 (VEGFR1) (Homo sapiens, UniProt P17948); assay: Radiometric kinase assay; type: biochemical; conditions: read-out: Kinase inhibition (%) FLT1 (VEGFR1)
FLT4 (VEGFR3) = FLT4 (VEGFR3) (Homo sapiens, UniProt P35916); assay: Radiometric kinase assay; type: biochemical; conditions: for inhibition at 10 µM: read-out: Kinase inhibition (%) FLT4 (VEGFR3)
KDR (VEGFR2) = KDR (VEGFR2) (Homo sapiens, UniProt P35968); assay: Radiometric kinase assay; type: biochemical; conditions: read-out: Kinase inhibition (%) KDR (VEGFR2)
MET = MET (Homo sapiens, UniProt P08581); assay: Radiometric kinase assay; type: biochemical; conditions: read-out: Kinase inhibition (%) MET
NTRK2 (TrkB) = NTRK2 (TrkB) (Homo sapiens, UniProt Q16620); assay: Radiometric kinase assay; type: biochemical; conditions: read-out: Kinase inhibition (%) NTRK2 (TrkB)
PDGFRA (PDGFRα) = PDGFRA (PDGFRα) (Homo sapiens, UniProt P16234); assay: Radiometric kinase assay; type: biochemical; conditions: for inhibition at 10 µM: read-out: Kinase inhibition (%) PDGFRA (PDGFRα)
PDGFRB (PDGFRβ) = PDGFRB (PDGFRβ) (Homo sapiens, UniProt P09619); assay: Radiometric kinase assay; type: biochemical; conditions: read-out: Kinase inhibition (%) PDGFRB (PDGFRβ)
AsPC-1 cells [1] = assay: Cell cycle test, RNase/PI flow cytometry; type: cell-based, human; conditions: AsPC-1, 3, 10, 30, 50 µM, 48 h
AsPC-1 cells [2] = assay: Apoptosis by Hoechst 33,258 staining; type: cell-based, human; conditions: AsPC-1, 10 and 30 µM, 48 h
FLT3 = FLT3 (Homo sapiens, UniProt P36888); assay: Radiometric kinase assay; type: biochemical; conditions: read-out: Kinase inhibition (%) FLT3
NTRK1 (TrkA) = NTRK1 (TrkA) (Homo sapiens, UniProt P04629); assay: Radiometric kinase assay; type: biochemical; conditions: read-out: Kinase inhibition (%) NTRK1 (TrkA)
[3] = test system: EBC-1, AsPC-1, Mia-Paca-2, HT-29, MCF-7 cancer cells; assay: MTT antiproliferative assay, cancer cell lines summarised; type: cell-based, human; conditions: MTT
[4] = MTT, 72 h, mean ± S.E.M. of 3–5 experiments

PDGFRA (PDGFRα), sequence (P16234 24-1089): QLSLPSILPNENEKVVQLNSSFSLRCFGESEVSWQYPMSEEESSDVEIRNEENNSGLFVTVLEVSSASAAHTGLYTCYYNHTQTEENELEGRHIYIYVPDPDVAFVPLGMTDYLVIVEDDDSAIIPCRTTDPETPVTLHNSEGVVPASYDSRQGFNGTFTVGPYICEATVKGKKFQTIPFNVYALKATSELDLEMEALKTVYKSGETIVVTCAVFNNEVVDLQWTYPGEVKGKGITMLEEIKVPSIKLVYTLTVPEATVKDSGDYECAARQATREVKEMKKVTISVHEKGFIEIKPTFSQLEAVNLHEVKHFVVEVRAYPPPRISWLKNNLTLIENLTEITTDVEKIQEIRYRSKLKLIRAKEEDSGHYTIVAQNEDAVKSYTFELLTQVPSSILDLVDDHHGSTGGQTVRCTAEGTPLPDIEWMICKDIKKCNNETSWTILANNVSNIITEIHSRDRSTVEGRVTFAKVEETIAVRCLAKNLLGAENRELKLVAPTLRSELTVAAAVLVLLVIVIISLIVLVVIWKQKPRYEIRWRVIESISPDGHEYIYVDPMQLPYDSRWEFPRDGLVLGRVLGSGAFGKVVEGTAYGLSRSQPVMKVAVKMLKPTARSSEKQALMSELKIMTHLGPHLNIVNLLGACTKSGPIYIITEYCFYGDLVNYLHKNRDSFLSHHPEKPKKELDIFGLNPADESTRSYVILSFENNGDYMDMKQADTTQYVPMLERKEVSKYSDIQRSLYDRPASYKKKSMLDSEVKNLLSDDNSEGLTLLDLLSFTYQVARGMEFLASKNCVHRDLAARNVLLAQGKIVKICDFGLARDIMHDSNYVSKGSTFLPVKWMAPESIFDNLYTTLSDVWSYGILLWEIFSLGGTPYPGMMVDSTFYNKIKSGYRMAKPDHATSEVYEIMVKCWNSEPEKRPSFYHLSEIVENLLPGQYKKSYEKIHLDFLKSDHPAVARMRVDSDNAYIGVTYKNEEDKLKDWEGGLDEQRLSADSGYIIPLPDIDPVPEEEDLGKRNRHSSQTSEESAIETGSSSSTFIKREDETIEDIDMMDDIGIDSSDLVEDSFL
FLT4 (VEGFR3), sequence (P35916 25-1363): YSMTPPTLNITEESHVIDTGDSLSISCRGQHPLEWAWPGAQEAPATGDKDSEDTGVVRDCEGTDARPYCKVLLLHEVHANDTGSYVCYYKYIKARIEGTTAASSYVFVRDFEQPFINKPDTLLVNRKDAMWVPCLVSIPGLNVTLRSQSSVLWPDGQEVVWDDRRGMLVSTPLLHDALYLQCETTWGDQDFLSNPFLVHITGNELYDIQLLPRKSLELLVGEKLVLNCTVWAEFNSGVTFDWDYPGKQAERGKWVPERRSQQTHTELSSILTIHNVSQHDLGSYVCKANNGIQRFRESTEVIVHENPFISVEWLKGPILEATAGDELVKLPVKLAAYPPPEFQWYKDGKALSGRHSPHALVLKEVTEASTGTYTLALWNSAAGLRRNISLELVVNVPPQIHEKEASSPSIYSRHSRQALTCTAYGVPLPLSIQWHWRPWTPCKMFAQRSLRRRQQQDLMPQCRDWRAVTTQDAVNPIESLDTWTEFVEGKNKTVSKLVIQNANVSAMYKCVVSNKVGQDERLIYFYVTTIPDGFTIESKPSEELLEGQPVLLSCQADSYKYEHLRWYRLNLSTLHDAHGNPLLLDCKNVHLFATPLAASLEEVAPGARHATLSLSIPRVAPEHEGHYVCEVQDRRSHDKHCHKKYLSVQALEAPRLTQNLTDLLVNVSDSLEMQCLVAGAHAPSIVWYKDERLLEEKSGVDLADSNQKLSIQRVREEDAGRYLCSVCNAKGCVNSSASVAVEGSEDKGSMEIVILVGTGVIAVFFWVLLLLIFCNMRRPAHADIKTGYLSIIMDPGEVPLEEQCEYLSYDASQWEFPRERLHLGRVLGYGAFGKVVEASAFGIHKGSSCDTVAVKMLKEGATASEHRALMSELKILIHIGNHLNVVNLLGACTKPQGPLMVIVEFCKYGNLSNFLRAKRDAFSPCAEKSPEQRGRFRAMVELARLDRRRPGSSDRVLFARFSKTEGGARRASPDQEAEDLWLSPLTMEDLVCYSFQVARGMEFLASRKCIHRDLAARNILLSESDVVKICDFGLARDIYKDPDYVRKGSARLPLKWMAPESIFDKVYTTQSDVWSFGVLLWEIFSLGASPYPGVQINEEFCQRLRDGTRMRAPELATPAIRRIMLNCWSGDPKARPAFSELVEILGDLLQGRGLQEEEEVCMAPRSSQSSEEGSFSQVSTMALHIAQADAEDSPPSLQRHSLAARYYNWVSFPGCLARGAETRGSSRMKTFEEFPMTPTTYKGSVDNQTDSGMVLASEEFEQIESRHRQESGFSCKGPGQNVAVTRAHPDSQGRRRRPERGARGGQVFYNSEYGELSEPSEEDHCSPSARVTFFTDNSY
MET, sequence (P08581 25-1390): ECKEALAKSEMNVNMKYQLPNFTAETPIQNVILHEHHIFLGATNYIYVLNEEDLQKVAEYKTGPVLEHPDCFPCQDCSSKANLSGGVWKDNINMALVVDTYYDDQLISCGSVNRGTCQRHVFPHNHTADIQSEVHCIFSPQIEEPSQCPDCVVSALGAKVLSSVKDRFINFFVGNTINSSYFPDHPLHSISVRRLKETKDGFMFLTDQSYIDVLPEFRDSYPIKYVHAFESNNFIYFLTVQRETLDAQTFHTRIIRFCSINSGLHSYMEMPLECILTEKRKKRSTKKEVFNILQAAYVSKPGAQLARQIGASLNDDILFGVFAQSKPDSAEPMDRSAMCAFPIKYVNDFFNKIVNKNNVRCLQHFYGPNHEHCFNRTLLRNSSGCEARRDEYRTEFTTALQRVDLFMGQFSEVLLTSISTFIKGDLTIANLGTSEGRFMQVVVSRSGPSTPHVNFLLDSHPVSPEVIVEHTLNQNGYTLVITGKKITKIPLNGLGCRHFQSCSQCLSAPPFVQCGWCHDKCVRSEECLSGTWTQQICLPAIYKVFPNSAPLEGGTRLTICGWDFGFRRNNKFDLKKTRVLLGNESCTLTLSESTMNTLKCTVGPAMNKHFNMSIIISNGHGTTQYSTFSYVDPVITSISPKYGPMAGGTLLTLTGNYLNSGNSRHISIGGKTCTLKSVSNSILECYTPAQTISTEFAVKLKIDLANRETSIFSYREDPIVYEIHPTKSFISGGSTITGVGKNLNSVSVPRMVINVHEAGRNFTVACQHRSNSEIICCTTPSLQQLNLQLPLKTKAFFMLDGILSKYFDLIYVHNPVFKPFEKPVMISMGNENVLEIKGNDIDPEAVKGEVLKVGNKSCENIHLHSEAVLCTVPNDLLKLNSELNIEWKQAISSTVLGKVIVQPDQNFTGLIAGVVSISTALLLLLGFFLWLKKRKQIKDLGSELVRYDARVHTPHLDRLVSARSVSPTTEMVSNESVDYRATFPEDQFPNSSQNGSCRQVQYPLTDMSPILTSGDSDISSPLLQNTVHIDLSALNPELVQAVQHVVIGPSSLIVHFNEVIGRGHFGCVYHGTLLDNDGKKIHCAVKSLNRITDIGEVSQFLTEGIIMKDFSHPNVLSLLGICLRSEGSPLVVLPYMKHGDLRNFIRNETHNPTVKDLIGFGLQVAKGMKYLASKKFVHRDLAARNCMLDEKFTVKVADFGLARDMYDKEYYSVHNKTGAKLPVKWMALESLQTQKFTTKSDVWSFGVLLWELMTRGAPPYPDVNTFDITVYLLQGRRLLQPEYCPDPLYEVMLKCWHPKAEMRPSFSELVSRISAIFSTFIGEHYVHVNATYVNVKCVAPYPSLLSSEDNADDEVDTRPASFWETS
KDR (VEGFR2), sequence (P35968 20-1356): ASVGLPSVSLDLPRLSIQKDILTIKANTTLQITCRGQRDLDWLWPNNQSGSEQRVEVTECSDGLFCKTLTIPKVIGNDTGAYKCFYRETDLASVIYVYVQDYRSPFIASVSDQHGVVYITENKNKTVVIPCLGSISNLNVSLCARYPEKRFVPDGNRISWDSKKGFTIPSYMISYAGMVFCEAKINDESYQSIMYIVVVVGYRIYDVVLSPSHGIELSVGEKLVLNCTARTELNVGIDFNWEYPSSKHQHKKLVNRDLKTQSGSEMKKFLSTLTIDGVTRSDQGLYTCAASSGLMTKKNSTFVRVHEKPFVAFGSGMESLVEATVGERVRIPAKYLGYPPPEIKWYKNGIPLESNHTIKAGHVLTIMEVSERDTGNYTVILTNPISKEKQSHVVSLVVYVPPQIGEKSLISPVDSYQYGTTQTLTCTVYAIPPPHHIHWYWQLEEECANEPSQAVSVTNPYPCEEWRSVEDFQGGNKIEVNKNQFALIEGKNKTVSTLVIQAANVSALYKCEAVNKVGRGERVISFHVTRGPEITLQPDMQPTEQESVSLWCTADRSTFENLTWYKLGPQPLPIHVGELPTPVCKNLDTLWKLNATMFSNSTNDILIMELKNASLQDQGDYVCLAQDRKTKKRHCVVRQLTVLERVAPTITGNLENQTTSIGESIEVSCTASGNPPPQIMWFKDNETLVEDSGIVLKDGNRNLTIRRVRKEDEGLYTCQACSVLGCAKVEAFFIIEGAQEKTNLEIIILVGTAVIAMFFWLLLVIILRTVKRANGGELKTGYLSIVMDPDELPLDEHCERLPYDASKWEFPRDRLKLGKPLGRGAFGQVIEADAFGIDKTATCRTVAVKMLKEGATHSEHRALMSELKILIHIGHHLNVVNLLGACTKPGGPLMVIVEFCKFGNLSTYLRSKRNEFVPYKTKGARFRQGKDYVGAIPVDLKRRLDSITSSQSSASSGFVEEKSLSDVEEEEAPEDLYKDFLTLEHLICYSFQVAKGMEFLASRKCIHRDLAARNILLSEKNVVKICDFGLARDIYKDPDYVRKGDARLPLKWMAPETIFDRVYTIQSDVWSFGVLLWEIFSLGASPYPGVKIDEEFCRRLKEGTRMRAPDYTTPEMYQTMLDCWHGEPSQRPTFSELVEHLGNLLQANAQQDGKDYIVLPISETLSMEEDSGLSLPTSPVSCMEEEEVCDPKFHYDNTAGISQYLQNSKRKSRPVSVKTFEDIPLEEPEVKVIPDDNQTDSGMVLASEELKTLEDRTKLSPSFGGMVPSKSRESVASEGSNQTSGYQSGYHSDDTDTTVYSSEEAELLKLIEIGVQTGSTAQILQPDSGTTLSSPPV

Cc1ccc(Cn2cc(COc3ccc(NC4=CC(=O)c5ccccc5C4=O)cc3)nn2)cc1 [Compound 4i, 2-((4-((1-(4-Methylbenzyl)−1H-1,2,3-triazol-4-yl)methoxy)phenyl)amino) naphthalene-1,4-dione]
IC50 (EBC-1; Homo sapiens, EBC-1, 72 h): 2.5 ± 0.3 µM
IC50 (AsPC-1; Homo sapiens, ASPC1, 72 h): 5.4 ± 0.9 µM
IC50 (Mia-Paca-2; Homo sapiens, MIA PaCa-2, 72 h): 20.6 ± 6.2 µM
IC50 (HT-29; Homo sapiens, HT-29, 72 h): 1.3 ± 0.5 µM
IC50 (MCF-7; Homo sapiens, MCF7, 72 h): 13.9 ± 0.7 µM
IC50 (NIH3T3; Mus musculus, NIH3T3, 72 h): 25.5 ± 6.1 µM
inhibition at 10 µM (AXL): 8%
IC50 (CDK2/cyclin A): 11.3 ± 0.477 µM
inhibition at 10 µM (CDK2/cyclin A): 51%
inhibition at 10 µM (FLT1 (VEGFR1)): -17%
IC50 (FLT4 (VEGFR3)): 1.336 ± 0.006 µM
inhibition at 10 µM (FLT4 (VEGFR3)): 87%
inhibition at 10 µM (KDR (VEGFR2)): 28%
inhibition at 10 µM (MET): 16%
inhibition at 10 µM (NTRK2 (TrkB)): 19%
IC50 (PDGFRA (PDGFRα)): 0.22 ± 0.009 µM
inhibition at 10 µM (PDGFRA (PDGFRα)): 74%
inhibition at 10 µM (PDGFRB (PDGFRβ)): 5%
Effect on cell cycle distribution (S and G2/M phases) (AsPC-1 cells [1]): dose-dependently increased the number of cells in the S phase and simultaneously reduced the cells in G2/M phase
Apoptosis induction (nuclear morphology) (AsPC-1 cells [2]): characteristic features of apoptosis including densely packed chromatin within the nucleus as well as nuclear fragmentation

COc1cc2nccc(Oc3ccc(NC(=O)C4(C(=O)Nc5ccc(F)cc5)CC4)cc3)c2cc1OC [Cabozantinib, reference compound]
IC50 (EBC-1; Homo sapiens, EBC-1, 72 h): 0.06 ± 0.01 µM
IC50 (AsPC-1; Homo sapiens, ASPC1, 72 h): 21.3 ± 2.03 µM
IC50 (Mia-Paca-2; Homo sapiens, MIA PaCa-2, 72 h): 7.4 ± 0.6 µM
IC50 (HT-29; Homo sapiens, HT-29, 72 h): 3.7 ± 0.4 µM
IC50 (MCF-7; Homo sapiens, MCF7, 72 h): 17.8 ± 2.4 µM

O=C1C=C(Nc2ccc(OCc3cn(Cc4ccc(Cl)cc4)nn3)cc2)C(=O)c2ccccc21 [Compound 4d, 2-((4-((1-(4-Chlorobenzyl)−1H-1,2,3-triazol-4-yl)methoxy)phenyl)amino) naphthalene-1,4-dione]
IC50 (EBC-1; Homo sapiens, EBC-1, 72 h): 1.9 ± 0.3 µM
IC50 (AsPC-1; Homo sapiens, ASPC1, 72 h): 20.8 ± 6.8 µM
IC50 (Mia-Paca-2; Homo sapiens, MIA PaCa-2, 72 h): 21.3 ± 3.6 µM
IC50 (HT-29; Homo sapiens, HT-29, 72 h): 3.1 ± 0.4 µM
IC50 (MCF-7; Homo sapiens, MCF7, 72 h): 15.9 ± 4.6 µM
IC50 (NIH3T3; Mus musculus, NIH3T3, 72 h): 14.4 ± 1.9 µM

CC(C)c1ccc(Cn2cc(COc3ccc(NC4=CC(=O)c5ccccc5C4=O)cc3)nn2)cc1 [Compound 4 g, 2-((4-((1-(4-Isopropylbenzyl)−1H-1,2,3-triazol-4-yl)methoxy)phenyl)amino) naphthalene-1,4-dione]
IC50 (EBC-1; Homo sapiens, EBC-1, 72 h): 2 ± 0.5 µM
IC50 (AsPC-1; Homo sapiens, ASPC1, 72 h): 12.8 ± 2.9 µM
IC50 (Mia-Paca-2; Homo sapiens, MIA PaCa-2, 72 h): 45 ± 8.2 µM
IC50 (HT-29; Homo sapiens, HT-29, 72 h): 4.9 ± 0.9 µM
IC50 (MCF-7; Homo sapiens, MCF7, 72 h): 22.3 ± 3.8 µM
IC50 (NIH3T3; Mus musculus, NIH3T3, 72 h): 24.5 ± 5.2 µM
inhibition at 10 µM (CDK2/cyclin A): 1%
inhibition at 10 µM (FLT3): -2%
inhibition at 10 µM (FLT4 (VEGFR3)): 9%
inhibition at 10 µM (KDR (VEGFR2)): -10%
inhibition at 10 µM (MET): -11%
inhibition at 10 µM (NTRK1 (TrkA)): 6%
inhibition at 10 µM (PDGFRA (PDGFRα)): 29%

COc1cccc2c1C(=O)c1c(O)c3c(c(O)c1C2=O)C[C@@](O)(C(=O)CO)C[C@@H]3O[C@H]1C[C@H](N)[C@H](O)[C@H](C)O1 [Doxorubicin, reference compound]
IC50 (EBC-1; Homo sapiens, EBC-1, 72 h): 0.5 ± 0.1 µM
IC50 (AsPC-1; Homo sapiens, ASPC1, 72 h): 1.73 ± 0.2 µM
IC50 (Mia-Paca-2; Homo sapiens, MIA PaCa-2, 72 h): 0.0881 ± 0.0526 µM
IC50 (HT-29; Homo sapiens, HT-29, 72 h): 0.6 ± 0.2 µM
IC50 (MCF-7; Homo sapiens, MCF7, 72 h): 0.137 ± 0.0063 µM
IC50 (NIH3T3; Mus musculus, NIH3T3, 72 h): 0.013 ± 0.0021 µM

N.N.[Cl][Pt][Cl] [Cisplatin, reference compound]
IC50 (EBC-1; [4]): 24 ± 5.5 µM
IC50 (AsPC-1; [4]): 5.4 ± 0.6 µM
IC50 (Mia-Paca-2; [4]): 22.1 ± 6.2 µM
IC50 (HT-29; [4]): 43.3 ± 17.3 µM
IC50 (MCF-7; [4]): 43.1 ± 1.9 µM
IC50 (NIH3T3; MTT, 72 h, non-cancer cell line, mean ± S.E.M.): 8.3 ± 1.4 µM

O=C1C=C(Nc2ccc(OCc3cn(CCN4C(=O)c5ccccc5C4=O)nn3)cc2)C(=O)c2ccccc21 [Compound 4j, 2-(2-(4-((4-((1,4-Dioxo-1,4-dihydronaphthalen-2-yl)amino)phenoxy)methyl)−1H-1,2,3-triazol-1-yl)ethyl)isoindoline-1,3-dione]
IC50 (EBC-1; Homo sapiens, EBC-1, 72 h): > 50 µM
IC50 (AsPC-1; Homo sapiens, ASPC1, 72 h): > 100 µM
IC50 (Mia-Paca-2; Homo sapiens, MIA PaCa-2, 72 h): > 100 µM
IC50 (HT-29; Homo sapiens, HT-29, 72 h): > 50 µM
IC50 (MCF-7; Homo sapiens, MCF7, 72 h): > 100 µM
Antiproliferative activity against cancer cell lines (in words) [3]: devoid of any antiproliferative potential against all cancer cells

O=C1C=C(Nc2ccc(OCc3cn(Cc4ccc(F)cc4)nn3)cc2)C(=O)c2ccccc21 [Compound 4c, 2-((4-((1-(4-Fluorobenzyl)−1H-1,2,3-triazol-4-yl)methoxy)phenyl)amino) naphthalene-1,4-dione]
IC50 (EBC-1; Homo sapiens, EBC-1, 72 h): 13.7 ± 3.3 µM
IC50 (AsPC-1; Homo sapiens, ASPC1, 72 h): 34.8 ± 15.3 µM
IC50 (Mia-Paca-2; Homo sapiens, MIA PaCa-2, 72 h): 61 ± 6.6 µM
IC50 (HT-29; Homo sapiens, HT-29, 72 h): > 100 µM
IC50 (MCF-7; Homo sapiens, MCF7, 72 h): 26.9 ± 0.2 µM
IC50 (NIH3T3; Mus musculus, NIH3T3, 72 h): 20.1 ± 3.3 µM

CC(C)(C)c1ccc(Cn2cc(COc3ccc(NC4=CC(=O)c5ccccc5C4=O)cc3)nn2)cc1 [Compound 4 h, 2-((4-((1-(4-(Tert-butyl)benzyl)−1H-1,2,3-triazol-4yl)methoxy)phenyl)amino) naphthalene-1,4-dione]
IC50 (EBC-1; Homo sapiens, EBC-1, 72 h): 8.7 ± 1.3 µM
IC50 (AsPC-1; Homo sapiens, ASPC1, 72 h): 16.2 ± 2 µM
IC50 (Mia-Paca-2; Homo sapiens, MIA PaCa-2, 72 h): 31.3 ± 3.3 µM
IC50 (HT-29; Homo sapiens, HT-29, 72 h): 2.5 ± 0.7 µM
IC50 (MCF-7; Homo sapiens, MCF7, 72 h): 20.3 ± 0.2 µM
IC50 (NIH3T3; Mus musculus, NIH3T3, 72 h): 46.7 ± 3.2 µM

O=C1C=C(Nc2ccc(OCc3cn(Cc4cccc(Cl)c4)nn3)cc2)C(=O)c2ccccc21 [Compound 4f, 2-((4-((1-(3-Chlorobenzyl)−1H-1,2,3-triazol-4-yl)methoxy)phenyl)amino) naphthalene-1,4-dione]
IC50 (EBC-1; Homo sapiens, EBC-1, 72 h): 2.3 ± 0.4 µM
IC50 (AsPC-1; Homo sapiens, ASPC1, 72 h): 10.5 ± 2.6 µM
IC50 (Mia-Paca-2; Homo sapiens, MIA PaCa-2, 72 h): 42.1 ± 12.6 µM
IC50 (HT-29; Homo sapiens, HT-29, 72 h): 1.9 ± 0.4 µM
IC50 (MCF-7; Homo sapiens, MCF7, 72 h): > 100 µM
IC50 (NIH3T3; Mus musculus, NIH3T3, 72 h): 29.8 ± 7.3 µM
